Source: patent US20240010659A1, “NEW THIADIAZOLOPYRIMIDONE DERIVATIVES” (Hoffmann-La Roche Inc., priority 2021, published 2024)
pEC50: −log10 of the molar value.

tested on: mutant HTT protein (mHTT); assay: Homogeneous Time Resolved Fluorescence (HTRF) assay for HTT lowering in GENEAe020-A cells; format: cell-based; conditions: reduction of mHTT in Huntington patient human cells (GENEAe020-A cell line), 48 hours incubation, mean from three replicates
Experimental: Homogeneous Time Resolved Fluorescence for HTT Lowering
The HTRF assay was adapted from Weiss et al. (Analytical Biochemistry Volume 395, Issue 1, 1 Dec. 2009, Pages 8-15 and Analytical Biochemistry Volume 410, 2011, Pages 304-306) to cells from GENEAe020-A cell line (https://hpscreg.eu/cell-line/GENEAe020-A).
Compounds were tested for the effect of mutant HTT levels in Huntington patient human cells (GENEAe020-A cell line) using Homogeneous Time Resolved Fluorescence (HTRF) directed towards mutant HTT protein (mHTT). The GENEAe020-A cell line was derived by Genea Biocells from human blastocysts of HD donors. After assessing viability, cells were plated into 384 well collagen coated plates in growth media. Once cells adhered, media was removed and test compounds dissolved in DMSO were diluted with buffer solution and added to the adherent cells. Controls included experiments with no cells, DMSO with no compound, and Hsp90 inhibitor control. Cells were incubated with compounds and controls for 48 hours. Then, the cells were lysed and transferred to an assay plate containing HTRF labeled monoclonal antibodies developed by Paul Patterson (Ko et al., Brain Research Bulletin, Volume 56, Numbers 3 and 4, 2001, Pages 319-329) which recognize specific areas of the HTT protein. The terbium labeled “donor” antibody (2B7) binds to the N-terminus of the HTT protein and the Alexa488 labeled “acceptor” antibody (MW1) is specific for the polyglutamine region of the protein. Binding of the acceptor labeled antibody is more efficient for the extended polyglutamine repeats of mutant HTT protein which translates into a signal boost which enables the specific measurement of mutant HTT protein level. The HTRF donor and acceptor detection reagents were incubated with the cell lysate and the ratio between the signals of the two fluorophores is indicative of the relative quantities of mHTT.

| SMILES | pEC50 |
| --- | --- |
| Cc1cn2cc(-c3cc(=O)n4nc(C5CCNCC5)sc4n3)cc(F)c2n1 [Example 3, 7-(8-fluoro-2-methyl-imidazo[1,2-a]pyridin-6-yl)-2-(4-piperidyl)-[1,3,4]thiadiazolo[3,2-a]pyrimidin-5-one] | 5.13 |
| Cc1cn2nc(-c3cc(=O)n4nc(N5CCNCC5)sc4n3)cc(C)c2n1 [Example 1, 7-(2,8-dimethylimidazo[1,2-b]pyridazin-6-yl)-2-piperazino-[1,3,4]thiadiazolo[3,2-a]pyrimidin-5-one] | 6.09 |
| Cc1cn2nc(-c3cc(=O)n4nc(C5CCNC5)sc4n3)cc(C)c2n1 (stereo not drawn) [Example 10, 7-(2,8-dimethylimidazo[1,2-b]pyridazin-6-yl)-2-pyrrolidin-3-yl-[1,3,4]thiadiazolo[3,2-a]pyrimidin-5-one] | 5.28 |
| Cc1cn2nc(-c3cc(=O)n4nc(C5(F)CCNCC5)sc4n3)cc(C)c2n1 [Example 8, 7-(2,8-dimethylimidazo[1,2-b]pyridazin-6-yl)-2-(4-fluoro-4-piperidyl)-[1,3,4]thiadiazolo[3,2-a]pyrimidin-5-one] | 6.50 |
| Cc1cn2nc(-c3cc(=O)n4nc(N5CCNC6(CC6)C5)sc4n3)cc(C)c2n1 [Example 6, 2-(4,7-diazaspiro[2.5]octan-7-yl)-7-(2,8-dimethylimidazo[1,2-b]pyridazin-6-yl)-[1,3,4]thiadiazolo[3,2-a]pyrimidin-5-one] | 5.23 |
| Cc1cn2nc(-c3cc(=O)n4nc(C5CCNCC5)sc4n3)cc(C)c2n1 [Example 2, 7-(2,8-dimethylimidazo[1,2-b]pyridazin-6-yl)-2-(4-piperidyl)-[1,3,4]thiadiazolo[3,2-a]pyrimidin-5-one] | 6.71 |
| Cc1cn2nc(-c3cc(=O)n4nc(N5C[C@@H](C)N[C@@H](C)C5)sc4n3)cc(C)c2n1 [Example 4, 7-(2,8-dimethylimidazo[1,2-b]pyridazin-6-yl)-2-[(3R,5S)-3,5-dimethylpiperazin-1-yl]-[1,3,4]thiadiazolo[3,2-a]pyrimidin-5-one] | 5.69 |
| Cc1cn2nc(-c3cc(=O)n4nc(C5CCNC6(CC6)C5)sc4n3)cc(C)c2n1 (stereo not drawn) [Example 7, 2-(4-azaspiro[2.5]octan-7-yl)-7-(2,8-dimethylimidazo[1,2-b]pyridazin-6-yl)-[1,3,4]thiadiazolo[3,2-a]pyrimidin-5-one] | 6.52 |
| Cc1cn2nc(-c3cc(=O)n4nc(C5CCNCC5)sc4n3)cc(C(F)(F)F)c2n1 [Example 9, 7-[2-methyl-8-(trifluoromethyl)imidazo[1,2-b]pyridazin-6-yl]-2-(4-piperidyl)-[1,3,4]thiadiazolo[3,2-a]pyrimidin-5-one] | 6.15 |
